Results from ChEMBL document CHEMBL1649464, “Galleria mellonella as a model system to study Acinetobacter baumannii pathogenesis and therapeutics” (2009).
The source made the active and inactive calls. No cut-off for these calls is given here.

Columns and labels:
[1] = test system: Acinetobacter baumannii; experiment: Antibacterial activity against Acinetobacter baumannii A9844 infected in Galleria mellonella caterpillar assessed as prolonged survival rate at 6 mg/kg administered as single dose; assay type: functional, organism-based; design: dose 6 mg/kg
[2] = test system: Acinetobacter baumannii; experiment: Antibacterial activity against Acinetobacter baumannii A9844 infected in Galleria mellonella caterpillar assessed as prolonged survival rate at 150 mg/kg administered as single dose; assay type: functional, organism-based; design: dose 150 mg/kg
[3] = test system: Acinetobacter baumannii; experiment: Antibacterial activity against Acinetobacter baumannii A9844 infected in Galleria mellonella caterpillar assessed as prolonged survival rate at 50 mg/kg administered as single dose; assay type: functional, organism-based; design: dose 50 mg/kg
[4] = test system: Acinetobacter baumannii; experiment: Antibacterial activity against carbapenem-resistant Acinetobacter baumannii A3587 infected in Galleria mellonella caterpillar assessed as prolonged survival rate at 60 mg/kg administered as single dose; assay type: functional
[5] = test system: Acinetobacter baumannii; experiment: Antibacterial activity against Acinetobacter baumannii A9844 infected in Galleria mellonella caterpillar assessed as prolonged survival rate at 60 mg/kg administered as single dose; assay type: functional, organism-based; design: dose 60 mg/kg

## GENTAMICIN
[1]
  Activity: Active

## CO/N=C(\C(=O)N[C@@H]1C(=O)N2C(C(=O)O)=C(COC(C)=O)CS[C@H]12)c1csc(N)n1
[2]
  Activity: inactive

## CN(C)[C@@H]1C(O)=C(C(N)=O)C(=O)[C@@]2(O)C(O)=C3C(=O)c4c(O)cccc4[C@@](C)(O)[C@H]3C[C@@H]12
[3]
  Activity: inactive

## C[C@@H](O)[C@H]1C(=O)N2C(C(=O)O)=C(S[C@@H]3CN[C@H](C(=O)N(C)C)C3)[C@H](C)[C@H]12 [MEROPENEM]
[4]
  Activity: <=12%
[5]
  Activity: Active
